Reference: patent US10336762B2 (priority 2017, dated 2019)

What was measured:
[1] = molecular target: IRAK4 enzyme (Homo sapiens (Human), UniProt Q9NWZ3); test: biochemical; assay type: biochemical; settings: IRAK4 enzyme, TR-FRET (HTRF), 500 μM ATP
[2] = test system: TNFα; test: cells; assay type: cell-based, human; settings: Homo sapiens, Monocyte, LPS-stimulated human monocytes, TNFα content; read-out: EC50 TNF

IRAK4 enzyme, sequence (Q9NWZ3 whole entry): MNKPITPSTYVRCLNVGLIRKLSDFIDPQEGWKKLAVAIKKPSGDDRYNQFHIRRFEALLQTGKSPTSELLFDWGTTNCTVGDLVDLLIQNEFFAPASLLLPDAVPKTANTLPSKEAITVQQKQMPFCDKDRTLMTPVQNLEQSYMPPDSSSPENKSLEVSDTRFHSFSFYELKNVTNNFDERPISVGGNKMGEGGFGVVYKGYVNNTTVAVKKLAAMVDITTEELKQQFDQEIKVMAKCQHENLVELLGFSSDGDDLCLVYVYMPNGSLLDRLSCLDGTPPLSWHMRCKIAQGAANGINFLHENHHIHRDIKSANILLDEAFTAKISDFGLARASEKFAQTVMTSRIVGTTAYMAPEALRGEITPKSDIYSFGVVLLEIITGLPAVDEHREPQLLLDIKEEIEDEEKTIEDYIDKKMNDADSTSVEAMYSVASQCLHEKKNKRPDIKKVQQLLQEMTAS

Compound: CNc1cc(-c2ccc3cc(C#N)cnn23)ncc1C(=O)NCC#N [Example 463, N-(cyanomethyl)-6-(3-cyanopyrrolo[1,2-b]pyridazin-7-yl)-4-(methylamino)nicotinamide]
- IC50 [1]: 3 nM
- EC50 [2]: 163 nM

Compound: CNC(=O)c1cnc(-c2ccc3cc(C#N)cnn23)cc1N[C@@H]1CCC[C@@H](C(=O)NC)C1 [Example 464, 6-(3-cyanopyrrolo[1,2-b]pyridazin-7-yl)-N-methyl-4-(((1R,3R)-3-(methylcarbamoyl)cyclohexyl)amino) nicotinamide]
- IC50 [1]: 23 nM
- EC50 [2]: 1110 nM

Compound: CNC(=O)c1cnc(-c2ccc3cc(C#N)cnn23)cc1N[C@H]1CC[C@@H](C(=O)NC)C1 [Example 465, 6-(3-cyanopyrrolo[1,2-b]pyridazin-7-yl)-N-methyl-4-(((1S,3R)-3-(methyl-carbamoyl)cyclopentyl)amino)nicotinamide]
- IC50 [1]: 8 nM
- EC50 [2]: 411 nM

Compound: CNC(=O)c1cnc(-c2ccc3cc(C#N)cnn23)cc1N[C@@H]1CC[C@@H](C(=O)NC)C1 [Example 466, 6-(3-cyanopyrrolo[1,2-b]pyridazin-7-yl)-N-methyl-4-(((1R,3R)-3-(methyl-carbamoyl)cyclopentyl)amino)nicotinamide]
- IC50 [1]: 8 nM
- EC50 [2]: 259 nM

Compound: CNC(=O)c1cnc(-c2ccc3cc(C#N)cnn23)cc1N[C@H]1CC[C@H](C(=O)NC)C1 [Example 467, 6-(3-cyanopyrrolo[1,2-b]pyridazin-7-yl)-N-methyl-4-(((1S,3S)-3-(methylcarbamoyl)cyclo-pentyl)amino)nicotinamide]
- IC50 [1]: 4 nM
- EC50 [2]: 167 nM

Compound: CNC(=O)c1cnc(-c2ccc3cc(C#N)cnn23)cc1NC12CCC(C(=O)NC)(CC1)C2 [Example 468, 6-(3-cyanopyrrolo[1,2-b]pyridazin-7-yl)-N-methyl-4-((4-(methylcarbamoyl)bicyclo[2.2.1]heptan-1-yl)amino)nicotinamide]
- IC50 [1]: 1 nM
- EC50 [2]: 112 nM

Compound: CNC(=O)c1cnc(-c2ccc3cc(C#N)cnn23)cc1N[C@@H]1CC[C@H](C(=O)NC)C1 [Example 469, 6-(3-cyanopyrrolo[1,2-b]pyridazin-7-yl)-N-methyl-4-(((1R,3S)-3-(methylcarbamoyl)cyclo-pentyl)amino)nicotinamide]
- IC50 [1]: 41 nM
- EC50 [2]: 1100 nM

Compound: CNC(=O)c1cnc(-c2ccc3cc(C#N)cnn23)cc1N[C@H]1CCC[C@@H](C(=O)NC)C1 [Example 470, 6-(3-cyanopyrrolo[1,2-b]pyridazin-7-yl)-N-methyl-4-(((1S,3R)-3-(methyl-carbamoyl)cyclohexyl)amino)nicotinamide]
- IC50 [1]: 25 nM
- EC50 [2]: 440 nM

Compound: CNC(=O)c1cnc(-c2ccc3cc(C#N)cnn23)cc1N[C@H]1C[C@@H](C(=O)NC)C1 [Example 471, 6-(3-cyanopyrrolo[1,2-b]pyridazin-7-yl)-N-methyl-4-(((1s,3s)-3-(methylcarbamoyl)cyclobutyl)amino) nicotinamide]
- IC50 [1]: 9 nM
- EC50 [2]: 74 nM

Compound: CNC(=O)c1cnc(-c2ccc3cc(C#N)cnn23)cc1N[C@H]1C[C@H](C(=O)NC)C1 [Example 472, 6-(3-cyanopyrrolo[1,2-b]pyridazin-7-yl)-N-methyl-4-(((1r,3r)-3-(methylcarbamoyl)cyclobutyl)amino) nicotinamide]
- IC50 [1]: 43 nM
- EC50 [2]: 5410 nM

Compound: CNC(=O)c1cnc(-c2ccc3cc(C#N)cnn23)cc1NC12CCC(NC(C)=O)(CC1)C2 [Example 473, 4-((4-acetamido-bicyclo[2.2.1]heptan-1-yl)amino)-6-(3-cyano-pyrrolo[1,2-b]pyridazin-7-yl)-N-methylnicotinamide]
- IC50 [1]: 1 nM
- EC50 [2]: 33 nM

Compound: N#CCNC(=O)c1cnc(-c2ccc3cc(C#N)cnn23)cc1NC12CCC(C(=O)N3CC(F)(F)C3)(CC1)CC2 [Example 474, N-(cyanomethyl)-6-(3-cyanopyrrolo[1,2-b]pyridazin-7-yl)-4-((4-(3,3-difluoroazetidine-1-carbonyl)bicyclo[2.2.2]octan-1-yl)amino)nicotinamide]
- IC50 [1]: < 1 nM
- EC50 [2]: 23 nM

Compound: CNC(=O)C12CCC(Nc3cc(-c4ccc5cc(C#N)cnn45)ncc3C(=O)NCC#N)(CC1)CC2 [Example 475, N-(cyanomethyl)-6-(3-cyanopyrrolo[1,2-b]pyridazin-7-yl)-4-((4-(methylcarbamoyl)bicyclo[2.2.2]octan-1-yl)amino)nicotinamide]
- IC50 [1]: < 1 nM
- EC50 [2]: 16 nM

Compound: CC(=O)NC12CCC(Nc3cc(-c4ccc5cc(C#N)cnn45)ncc3C(=O)NCC#N)(CC1)CC2 [Example 476, 4-((4-acetamido-bicyclo[2.2.2]octan-1-yl)amino)-N-(cyano-methyl)-6-(3-cyano-pyrrolo[1,2-b]pyridazin-7-yl)nicotinamide]
- IC50 [1]: < 1 nM
- EC50 [2]: 27 nM

Compound: CC(=O)NC12CC(Nc3cc(-c4ccc5cc(C#N)cnn45)ncc3C(=O)NC3CCC(C(=O)N4CCOCC4)CC3)(C1)C2 (stereo not shown) [Example 477, 4-((3-acetamido-bicyclo[1.1.1]pentan-1-yl)amino)-6-(3-cyano-pyrrolo[1,2-b]pyridazin-7-yl)-N-((1r,4r)-4-(morpholine-4-carbonyl)cyclohexyl) nicotinamide]
- IC50 [1]: 1 nM
- EC50 [2]: 98 nM

Compound: CC(=O)NC12CC(Nc3cc(-c4ccc5cc(C#N)cnn45)ncc3C(=O)N[C@H]3CC[C@H](C(=O)N4CC(F)(F)C4)CC3)(C1)C2 [Example 478, 4-((3-acetamido-bicyclo[1.1.1]pentan-1-yl)amino)-6-(3-cyano-pyrrolo[1,2-b]pyridazin-7-yl)-N-((1r,4r)-4-(3,3-difluoroazetidine-1-carbonyl)cyclohexyl) nicotinamide]
- IC50 [1]: 1 nM
- EC50 [2]: 73 nM

Compound: CNC(=O)[C@H]1CC[C@H](NC(=O)c2cnc(-c3ccc4cc(C#N)cnn34)cc2NC23CC(NC(C)=O)(C2)C3)CC1 [Example 479, 4-((3-acetamidobicyclo[1.1.1]pentan-1-yl)amino)-6-(3-cyanopyrrolo[1,2-b]pyridazin-7-yl)-N-((1r,4r)-4-(methylcarbamoyl)cyclohexyl)nicotinamide]
- IC50 [1]: < 1 nM
- EC50 [2]: 71 nM

Compound: CNC(=O)c1cnc(-c2ccc3cc(C#N)cnn23)cc1NC12CC(NC(=O)C3CC3)(C1)C2 [Example 480, 6-(3-cyanopyrrolo[1,2-b]pyridazin-7-yl)-4-((3-(cyclopropanecarboxamido)bicyclo[1.1.1]pentan-1-yl)amino)-N-methylnicotin-amide]
- IC50 [1]: 2 nM
- EC50 [2]: 92 nM

Compound: CNC(=O)c1cnc(-c2ccc3cc(C#N)cnn23)cc1NC12CCC(C(=O)NC3CC3)(CC1)CC2 [Example 481, 6-(3-cyanopyrrolo[1,2-b]pyridazin-7-yl)-4-((4-(cyclopropylcarbamoyl)bicyclo[2.2.2]octan-1-yl)amino)-N-methylnicotinamide]
- IC50 [1]: 2 nM
- EC50 [2]: 63 nM

Compound: CNC(=O)c1cnc(-c2ccc3cc(C#N)cnn23)cc1NC12CCC(NC(C)=O)(CC1)CC2 [Example 482, 4-((4-acetamido-bicyclo[2.2.2]octan-1-yl)amino)-6-(3-cyano-pyrrolo[1,2-b]pyridazin-7-yl)-N-methylnicotinamide]
- IC50 [1]: 1 nM
- EC50 [2]: 48 nM

Compound: CNC(=O)c1cnc(-c2ccc3cc(C#N)cnn23)cc1NC12CCC(C(=O)N3CC(F)(F)C3)(CC1)CC2 [Example 483, 6-(3-cyanopyrrolo[1,2-b]pyridazin-7-yl)-4-((4-(3,3-difluoroazetidine-1-carbonyl)bicyclo[2.2.2]octan-1-yl)amino)-N-methylnicotinamide]
- IC50 [1]: 1 nM
- EC50 [2]: 64 nM

Compound: CNC(=O)c1cnc(-c2ccc3cc(C#N)cnn23)cc1NC12CCC(C(=O)N3CCC3)(CC1)CC2 [Example 484, 4-((4-(azetidine-1-carbonyl)bicyclo[2.2.2]octan-1-yl)amino)-6-(3-cyanopyrrolo[1,2-b]pyridazin-7-yl)-N-methyl-nicotinamide]
- IC50 [1]: 1 nM
- EC50 [2]: 63 nM

Compound: CNC(=O)c1cnc(-c2ccc3cc(C#N)cnn23)cc1NC12CCC(C(=O)NC)(CC1)CC2 [Example 485, 6-(3-cyanopyrrolo[1,2-b]pyridazin-7-yl)-N-methyl-4-((4-(methyl-carbamoyl)bicyclo[2.2.2]octan-1-yl)amino) nicotinamide]
- IC50 [1]: 1 nM
- EC50 [2]: 39 nM

Compound: CNC(=O)c1cnc(-c2ccc3cc(C#N)cnn23)cc1NC12CCC(NC(=O)OC)(CC1)CC2 [Example 486, methyl (4-((2-(3-cyano-pyrrolo[1,2-b]pyridazin-7-yl)-5-(methylcarbamoyl)pyridin-4-yl)amino)bicyclo[2.2.2]octan-1-yl)carbamate]
- IC50 [1]: 1 nM
- EC50 [2]: 64 nM

Compound: COC(=O)NC12CC(Nc3cc(-c4ccc5cc(C#N)cnn45)ncc3C(=O)NCC#N)(C1)C2 [Example 487, methyl (3-((5-((cyanomethyl)carbamoyl)-2-(3-cyanopyrrolo[1,2-b]pyridazin-7-yl)pyridin-4-yl)amino)bicyclo[1.1.1]pentan-1-yl)carbamate]
- IC50 [1]: < 1 nM
- EC50 [2]: 51 nM

Compound: CNC(=O)c1cnc(-c2ccc3cc(C#N)cnn23)cc1NC12CC(NC(=O)OC)(C1)C2 [Example 488, methyl (3-((2-(3-cyano-pyrrolo[1,2-b]pyridazin-7-yl)-5-(methylcarbamoyl)pyridin-4-yl)amino)bicyclo[1.1.1]pentan-1-yl)carbamate]
- IC50 [1]: 1 nM
- EC50 [2]: 71 nM

Compound: CNC(=O)c1cnc(-c2ccc3cc(C#N)cnn23)cc1NC12CC(C1)C2 [Example 489, 4-(bicyclo[1.1.1]pentan-1-ylamino)-6-(3-cyano-pyrrolo[1,2-b]pyridazin-7-yl)-N-methylnicotinamide]
- IC50 [1]: 2 nM
- EC50 [2]: 121 nM

Compound: CC(C)Nc1cc(-c2ccc3cc(C#N)cnn23)ncc1C(=O)Nc1cncc(N)c1 [Example 490]
- IC50 [1]: 7 nM
- EC50 [2]: 220 nM

Compound: CC(=O)Nc1cncc(NC(=O)c2cnc(-c3ccc4cc(C#N)cnn34)cc2NC(C)C)c1 [Example 491, N-(5-acetamidopyridin-3-yl)-6-(3-cyanopyrrolo[1,2-b]pyridazin-7-yl)-4-(isopropylamino) nicotinamide]
- IC50 [1]: 19 nM
- EC50 [2]: 219 nM
